“Also recorded” adds a separate entry of the source.
How the values were obtained:
L. passim strain PRA-403 = experiment: Lotmaria passim parasite uptake test; type: cell-based; settings: room temperature, 45 min; for uptake in L. passim (fluorescence intensity, microplate reader): 1 μM and 100 μM
Experimental: 100 mM stock solutions of BODIPY derivatives were prepared with dimethylsulfoxide (DMSO). L passim strain PRA-403 (ATCC) was cultured in modified medium for C. bombi (Tognazzo et al.). The parasite culture was centrifuged, supernatant was removed and 500 μL of L passim medium with compound (final concentration 500, 100, 10 or 1 μM for BODIPY derivatives) or DMSO (0.1%) control was added. Incubated for 45 min at room temperature.
Uptake tests were performed at 1 μM and 100 μM final concentration of CJ-BODIPY derivatives. After incubation at room temperature for 45 min, fluorescence intensities were evaluated using a microplate reader.

C. elegans = experiment: Conjugate uptake in C. elegans (dye and praziquantel conjugates, fluorescence microscopy); type: in vivo, Caenorhabditis elegans; settings: 50 μM; for viability of the nematodes: readings up to 72 h
Experimental: Nematode Growth Media (NGM) plates containing C. elegans were washed with 1.0-1.5 mL of standard M9 buffer and the washes were collected in an Eppendorf tube. The liquid containing the C. elegans was then spun for 1 min at room temperature at 10,000 rpm. The supernatant was removed, and fresh M9 buffer was added (500 μL) to generate a new stock solution of M9 buffer containing the C. elegans.
A C. elegans suspension (100 μL) was added a defined amount of M9 buffer (determined by the final desired concentration of compound to be tested: 399 μL in the case of the BODIPY tagged derivatives) contained within a separate Eppendorf tube. To this was then added a 25 mM solution of the compound in DMSO (1 μL). The resulting suspension was mixed using a vortex instrument.
The resulting mixture was incubated at room temperature for 2 to 4 h. in the dark (using aluminium foil to screen the tube, which was also stored in a cabinet).
Other samples were incubated overnight. Here, OP50 bacteria (3 μL) were added to the worms for feeding purposes, and the worms were kept in the dark at 20° C.
After the incubation, the tube contents were mixed gently by hand (typically by simple rotation of the tube), so as to achieve a homogenous suspension. A sample of the suspension (250 μL) was taken and mixed with M9 buffer (500 μL). The resulting suspension was placed in a centrifuge and spun at room temperature at 10,000 rpm for 1 min. The supernatant was removed, and the washing process was repeated twice more, each time using further quantities of fresh M9 buffer (500 μL each time). After the final washing sufficient supernatant was removed so as to leave a final sample volume of approximate 30 μL.
A 1.5% agarose solution in water was pre-warmed for 60 to 90 s. in a standard household style microwave (set to Power 4). Two drops of this solution was removed and placed on a glass slide. The glass slide was covered with a second glass slide. After 1 min., the slides were slid carefully apart, with the agarose remaining on one of the slides. Onto this slide was placed an aliquot of the final C. elegans solution (15 to 20 μL). To this was added a 20 mM sodium azide solution (5 μL) to inhibit nematode mobility. Vaseline was then placed around the agarose area before replacing the second slide. The slides were not pressed together.
The nematodes were then analysed using a Zeiss Axiskop 2 Plus microscope with a Hamamatsu Orca-ER (CA 742-95) camera. The images were resolved using OpenLab on a Mac operating system.
Compounds 1-11 were evaluated after 3 h and overnight incubation at a 50 μM concentration using the general uptake protocol described for C. elegans.
In order to compare the ability of a conjugate to improve the uptake of the drug praziquantel, two praziquantel derivatives were generated. Praziquantel was tagged with a BODIPY fluorescent tag (compound 12) and incorporated into a conjugate of the invention (compound 13). Compounds 12 and 13 were evaluated at a concentration of 50 μM using the C. elegans uptake protocol described above for compounds 1-11. Microscopic readings were taken after 3, 24 and 72 h.

[1] = tested on: gastrointestinal system (crop, midgut and rectum) of adult honey bees; experiment: Honey bee gut uptake test; set-up: species or system Apis mellifera; settings: 100 μM, 33° C., 45 min
Experimental: Honey bee (A. mellifera) hives were obtained and allowed to feed ab libitum spring to autumn. During the winter period, pollen mixed with 50% (v/v) sucrose was added to the honey bee hives in order to provide sufficient food. Honey bees were dissected and gastrointestinal system was removed including the crop, midgut and rectum, and added immediately to 500 μL of the delivery vehicle to be tested sample diluted with PBS at 100 μM final concentration or DMSO (0.1%) control. The mixture was incubated for 45 min at 33° C.
The gastrointestinal system (crop, midgut and rectum) of adult honey bees was extracted, and incubated with derivatives 1, 2, 8 and 11 at 100 μM and 33° C. for 45 min.

For CC1=CC(C)=[N+]2C1=Cc1ccc(CCCn3cc(CCNC(=O)/C=C\NC(=O)[C@H]4OC(C)(C)OCC4(C)C)nn3)n1[B-]2(F)F [Compound 4, (Z)—N-((((3-[4,4-Difluoro-5,7-dimethyl-4-bora-3a,4a-diaza-s-indacene-3-yl]propyl)-1H-1,2,3-triazol-4-yl)ethylamino)-3-oxoprop-1-enyl)-2,2,5,5-tetramethyl-1,3-dioxane-4-carboxamide], the “uptake in L. passim (fluorescence intensity, microplate reader)” value (L. passim strain PRA-403) was “one of the lowest amounts of uptake”, the “uptake: location of fluorescence in C. elegans” value (from here on “uptake: location of fluorescence”) (C. elegans; 3 h incubation) was “traces of compound 4 were present in the gut cells of larval stages” and the “uptake: location of fluorescence” value (C. elegans; 20 h / overnight incubation) was “fluorescence was detected in the pharynx and the gut cells of the larval stages as well as in the early stage of egg development”.

CC1=CC(C)=[N+]2C1=Cc1ccc(CCCn3cc(CCNC(=O)/C=C\NC(=O)[C@H](O)C(C)(C)CO)nn3)n1[B-]2(F)F [Compound 6, (Z)—N-((((3-[4,4-Difluoro-5,7-dimethyl-4-bora-3a,4a-diaza-s-indacene-3-yl]propyl)-1H-1,2,3-triazol-4-yl)ethylamino)-3-oxoprop-1-enyl)-2,4-dihydroxy-3,3-dimethylbutanamide] was tested, and the “uptake compared to other compounds” value (C. elegans; 3 h incubation) was “much lower degree than the enantiomeric analogue compound 8”, the “uptake: location of fluorescence” value (C. elegans; 3 h incubation) was “visible in the gut cells and gut lumen of larval stages and in a lesser extent in the pharynx; also recorded: In adults, fluorescence was located in the pharynx, gut lumen and gut cells; also recorded: Fluorescence was not observed in the embryos” and the “uptake: location of fluorescence” value (C. elegans; 20 h / overnight incubation) was “fluorescence was present in the gut lumen and gut cells, and to a smaller degree in the pharynx of the larvae; also recorded: Fluorescence was also present in the pharynx, gut cells and gut lumen of the adults as well as in the early stages of egg development; also recorded: Fluorescence was not observed in the embryos”.

With CC1=CC(C)=[N+]2C1=Cc1ccc(CCCn3cc(CCNC(=O)/C=C\NC(=O)[C@H](O)C(C)(C)CO)nn3)n1[B-]2(F)F [Compound 8, (Z)—N-((((3-[4,4-Difluoro-5,7-dimethyl-4-bora-3a,4a-diaza-s-indacene-3-yl]propyl)-1H-1,2,3-triazol-4-yl)ethylamino)-3-oxoprop-1-enyl)-2,4-dihydroxy-3,3-dimethylbutanamide] the “uptake in L. passim (fluorescence intensity, microplate reader)” value (L. passim strain PRA-403) was “relatively low uptake”, the “uptake in L. passim (fluorescence microscopy)” value (L. passim strain PRA-403; 10 μM) was “displayed fluorescence surrounding the cell membrane but not in the cytoplasm” and the “uptake compared to other compounds” value (C. elegans; 3 h incubation) was “second largest uptake observed compared to compounds 1 to 7”. For the same compound, the “uptake: location of fluorescence” value (C. elegans; 3 h incubation) was “visible in the gut cells and gut lumen and to a lesser extent into the pharynx of larvae; also recorded: In adults, fluorescence was observed in the pharynx, the gut lumen, the gut cells, and eggs”, the “uptake: location of fluorescence” value (C. elegans; 20 h / overnight incubation) was “fluorescence was present in the pharynx, gut lumen and gut cells of the larvae; also recorded: In adults, fluorescence was detected in the pharynx, gut lumen and gut cells, but not in the embryos” and the “fluorescence in honey bee gut (crop, midgut, rectum)” value [1] was “slight fluorescence in midgut and rectum, but none in the crop”.

In the case of CC1=CC(C)=[N+]2C1=Cc1ccc(CCC(=O)N3CC(=O)N4CCc5ccccc5C4C3)n1[B-]2(F)F (stereo not drawn) [Compound 12, 5,5-Difluoro-1,3-dimethyl-7-(3-oxo-3-(4-oxo-3,4,6,7-tetrahydro-1-pyrazino[2,1-a]isoquinolin 2(11 bH)-yl)propyl)-5H-dipyrrolo[1,2-c:2′,1′-f][1,3,2]diazaborinin-4-ium-5-uide, reference compound], the “uptake: location of fluorescence” value (C. elegans; 3 h incubation) is reported as “weakly up taken up into the pharynx and gut cells of the C. elegans larvae, as well as by adult nematodes mainly in the gut cells with lesser amount in the pharynx”, the “uptake: location of fluorescence” value (C. elegans; 24 h incubation) is reported as “the larva showed no increased uptake, with very minor amounts of compound 12 located in the pharynx and the gut cells” and the “uptake: location of fluorescence” value (C. elegans; 72 h incubation) is reported as “only the gut cells of the larvae showed the presence of small amounts of fluorescence; also recorded: In the case of the adult stages, fluorescence was visible in the gut lumen, gut cells and pharynx”. For the same compound, the “viability of the nematodes” value (C. elegans) was “remained viable with no apparent detrimental effect”.

In the case of CC1(C)OCC(C)(C)[C@H](C(=O)N/C=C/C(=O)NCCc2cn(CCCC3=[N+]4C(=Cc5ccc(CCC(=O)N6CC(=O)N7CCc8ccccc8C7C6)n5[B-]4(F)F)C=C3)nn2)O1 (stereo partly drawn) [Compound 13, 5,5-Difluoro-7-(3-oxo-3-(4-oxo-3,4,6,7-tetrahydro-1H-pyrazino[2,1-a]isoquinolin-2(11bH)-yl)propyl)-3-(3-(4-(2-((E)-3-((R)-2,2,5,5-tetramethyl-1,3-dioxane-4-carboxamido)acrylamido)ethyl)-1H-1,2,3-triazol-1-yl)propyl)-5H-dipyrrolo[1,—2-c:2′,1′-f][1,3,2]diazaborinin-4-ium-5-uide], the “uptake: location of fluorescence” value (C. elegans; 3 h incubation) is reported as “strongly located in the pharynx, gut cells and gut lumen of the larval stages; also recorded: In the adult nematodes, compound 13 was strongly located in the pharynx, gut cells and gut lumen, whilst not visible in the embryos”, the “increase in uptake of compound 13 compared to compound 12” value (C. elegans; 20 h incubation) is reported as “threefold increase” and the “uptake: location of fluorescence” value (C. elegans; 24 h incubation) is reported as “strongly observed in the pharynx, gut cells and gut lumen of the larva”. The “uptake: location of fluorescence” value (C. elegans; 72 h incubation) was “still strongly visible in the pharynx, gut lumen and get cells of the larvae; also recorded: In the case of the adult nematodes, compound 13 was strongly visible in the pharynx and in the gut lumen, as well as in the embryos and eggs” and the “viability of the nematodes” value (C. elegans) was “remained viable with no apparent detrimental effect”.
